Here are results for one compound from patent publication US10351566B2, “Therapeutic compounds for pain and synthesis thereof” (priority 2015, dated 2019).

In series [1] the target is CYP2C19 (Homo sapiens, UniProt P33261). As to the kind of experiment: Reversible CYP450 inhibition, cocktail format. It counts as biochemical. Conditions: preliminary. On the procedure:
(§1) Preliminary in vitro studies on reversible inhibition of major CYP450 enzymes were conducted in a cocktail format for this compound. The IC50 values were 4 μM for CYP2C9, 5 μM for CYP2C19, and greater than 10 μM for CYP3A4, 2C8, 2D6, and 1A2. If total plasma concentrations in humans are less than 0.4 μM, then in vivo drug interaction studies in clinical trials may not be required for this compound.

Series [2] deals with CYP2D6 (Homo sapiens, UniProt P10635). As to the kind of experiment: Reversible CYP450 inhibition, cocktail format. It counts as biochemical. Conditions: 2D6, reversible inhibition, preliminary. On the procedure: as §1
In series [3] the target is T1, CYP1A2 (Homo sapiens, UniProt P05177).
T1 sequence (P05177 1-516): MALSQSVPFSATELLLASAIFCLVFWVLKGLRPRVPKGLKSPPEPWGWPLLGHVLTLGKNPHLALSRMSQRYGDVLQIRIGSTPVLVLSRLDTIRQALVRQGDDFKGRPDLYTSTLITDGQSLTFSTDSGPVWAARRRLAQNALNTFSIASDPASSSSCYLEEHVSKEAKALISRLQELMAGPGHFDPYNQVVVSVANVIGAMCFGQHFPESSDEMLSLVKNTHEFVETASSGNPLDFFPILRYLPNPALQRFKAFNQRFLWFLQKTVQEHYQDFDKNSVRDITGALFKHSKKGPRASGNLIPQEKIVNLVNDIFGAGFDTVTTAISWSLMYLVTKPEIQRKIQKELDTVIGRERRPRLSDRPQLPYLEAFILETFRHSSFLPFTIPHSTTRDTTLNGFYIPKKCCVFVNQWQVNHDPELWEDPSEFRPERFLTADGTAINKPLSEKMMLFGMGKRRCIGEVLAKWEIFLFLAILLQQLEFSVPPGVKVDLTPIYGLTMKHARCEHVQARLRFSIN
As to the kind of experiment: Reversible CYP450 inhibition, cocktail format. Conditions: 1A2, reversible inhibition, preliminary. It counts as biochemical. On the procedure: as §1

Series [4] addresses CYP2C9 (Homo sapiens, UniProt P11712). As to the kind of experiment: Reversible CYP450 inhibition, cocktail format. Conditions: preliminary. It counts as biochemical. On the procedure: as §1
Series [5] is classed as in vivo, mice. The procedure:
At 4 days, vehicle-treated animals gained approximately 1% body weight, going from 25.24±0.74 g to 25.50±0.64 g. Formula 1 treated animals went from 25.28±1.04 g to 25.82±1.25 g.
Animals treated with Formula 1 at a dose of 10 mg/kg IP for a period of 31 days gained […] body weight (changing from 21.44±0.18 g to 25.49±0.46 g). Vehicle treated animals gained […] body weight (changing from 21.45±0.19 g to 23.97±0.62 g; p=0.07), therefore no significant changes were found.

The format of series [6] is in vivo. Conditions: naïve mice, 10 mg/kg IP. The procedure:
Changes in responses of normal withdrawal threshold to heat and cold stimuli in naïve animals following drug treatment may reflect a CNS effect, as in the case of cannabinoids or opioids. Therefore, the response of the naïve mice post-Formula 1 administration at a dose of 10 mg/kg IP was assessed (Table 5).

Series [7] can be described thus: in vitro. Conditions: human, Caco-2. It counts as in vitro ADME. On the procedure:
Formula 1 was evaluated for cellular permeability using Caco-2 cell monolayers. Both the apical-to-basolateral (A-B) and basolateral-to-apical (B-A) bidirectional permeability and efflux ratios were evaluated in the assay.

Series [8] concerns selected targets (including some important cardiovascular safety-related targets). Conditions: at 10 μM. On the procedure:
A Cerep activity screen was conducted and was negative against the selected targets at 10 μM (including some important cardiovascular safety-related targets) for Formula 1.

Series [9] has as its system 14-3-3σ. Put plainly: 14-3-3σ expression in plasma and hind paw skin of Taxol dosed mice (Somascan). Format: in vivo. The procedure:
The Taxol model was used in order to investigate the MoA of Formula 1.
Animals showing chemotherapy-induced pain following repeated doses of taxol were treated with either vehicle gabapentin or Formula 1. Plasma was collected following the first dose of the test items and after 7 days of daily treatment. Skin from hind paws were also collected following 7 days of daily treatment. The tissues were processed and the expression levels on 1310 proteins were assessed (Somascan provided by SomaLogic, Inc., Boulder, Colo.).
Three statistical methods were used to identify protein expression that discriminated between Formula 1, gabapentin and vehicle on day 8, following a single dose, and on study day 14 following multiple dosing.
A comparison between day 8 and day 14 within each group was also performed. All methods were conducted on scaled data. First, a Student's t-test was performed in order to compare proteins between groups. Second, the LASSO (least absolute shrinkage and selection operator) method was applied. This is a regression technique that simultaneously performs variable selection and model coefficient modification. These models used group as the outcome and all 1310 proteins as the starting predictors. LASSO was then tuned to shrink unimportant coefficients to zero, leaving approximately the ten most important predictors of (or discriminators between) the groups. […]

pIC50: −log10 of the molar value. Like-named read-outs stand apart in the source and are kept apart here. Some results are limits rather than exact numbers.

CYP2C9, sequence (P11712 whole entry): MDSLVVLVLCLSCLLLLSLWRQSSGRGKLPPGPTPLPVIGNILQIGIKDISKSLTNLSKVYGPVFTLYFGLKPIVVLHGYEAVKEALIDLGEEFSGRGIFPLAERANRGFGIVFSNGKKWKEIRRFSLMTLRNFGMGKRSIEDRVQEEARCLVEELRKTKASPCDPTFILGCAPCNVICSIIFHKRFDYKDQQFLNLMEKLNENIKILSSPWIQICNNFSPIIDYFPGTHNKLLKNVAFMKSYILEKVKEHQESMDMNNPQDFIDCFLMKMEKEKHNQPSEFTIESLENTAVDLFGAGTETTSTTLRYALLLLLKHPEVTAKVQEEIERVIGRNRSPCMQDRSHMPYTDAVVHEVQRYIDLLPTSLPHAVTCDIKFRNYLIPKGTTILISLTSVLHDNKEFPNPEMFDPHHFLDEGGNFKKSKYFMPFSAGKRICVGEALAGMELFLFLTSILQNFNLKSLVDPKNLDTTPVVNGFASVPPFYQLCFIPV
CYP2D6, sequence (P10635 whole entry): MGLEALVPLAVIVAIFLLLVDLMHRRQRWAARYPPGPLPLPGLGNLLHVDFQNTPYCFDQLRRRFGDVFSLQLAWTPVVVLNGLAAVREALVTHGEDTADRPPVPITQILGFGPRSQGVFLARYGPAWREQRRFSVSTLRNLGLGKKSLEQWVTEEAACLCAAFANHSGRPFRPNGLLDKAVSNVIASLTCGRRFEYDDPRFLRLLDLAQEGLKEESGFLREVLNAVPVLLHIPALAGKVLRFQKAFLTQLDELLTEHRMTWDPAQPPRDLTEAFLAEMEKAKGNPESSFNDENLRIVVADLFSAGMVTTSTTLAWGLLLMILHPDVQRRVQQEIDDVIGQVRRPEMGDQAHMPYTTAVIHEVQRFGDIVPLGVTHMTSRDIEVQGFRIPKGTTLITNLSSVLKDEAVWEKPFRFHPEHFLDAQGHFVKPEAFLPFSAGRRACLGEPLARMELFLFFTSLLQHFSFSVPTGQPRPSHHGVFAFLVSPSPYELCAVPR
CYP2C19, sequence (P33261 whole entry): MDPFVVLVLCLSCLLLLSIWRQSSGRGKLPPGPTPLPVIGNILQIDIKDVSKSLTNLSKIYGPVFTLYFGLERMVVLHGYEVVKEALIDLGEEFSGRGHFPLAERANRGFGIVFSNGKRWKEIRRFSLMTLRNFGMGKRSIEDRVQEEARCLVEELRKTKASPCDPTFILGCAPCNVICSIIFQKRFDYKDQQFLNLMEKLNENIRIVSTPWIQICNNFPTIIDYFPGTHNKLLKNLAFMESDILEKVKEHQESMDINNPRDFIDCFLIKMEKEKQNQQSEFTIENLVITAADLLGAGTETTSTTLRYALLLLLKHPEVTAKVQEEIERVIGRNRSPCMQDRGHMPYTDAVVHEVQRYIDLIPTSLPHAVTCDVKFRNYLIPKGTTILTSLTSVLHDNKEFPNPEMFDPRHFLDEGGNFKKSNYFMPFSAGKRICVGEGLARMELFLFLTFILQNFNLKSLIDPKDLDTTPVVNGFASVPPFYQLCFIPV

`CC(C)(C)C(=O)O[C@@H]1[C@@H]2[C@H]3C[C@H](C[C@@H]1N3Cc1ccccn1)CN2C(=O)CC(F)(F)F` (relative stereo) [Formula 1, (2S*,3S*,3aS*,6R*,7aR*)-1-(pyridin-2-ylmethyl)-4-(3,3,3-trifluoropropanoyl)octahydro-1H-2,6-methanopyrrolo[3,2-b]pyridin-3-yl pivalate]: in [1], the pIC50 (in general, the IC50 on a negative log10 scale, so that one unit is a factor of ten) is 5.30. The compound further gave a pIC50 in series [2] of less than 5.00. In [3], the pIC50 was less than 5.00. In series [4], this compound showed a pIC50 of 5.40. Besides, in series [5] (10 mg/kg IP for 31 days), the “body weight at end” value was 25.49 ± 0.46 g, the “body weight at start” value was determined as 21.44 ± 0.18 g and the body weight gained was found to be 15.64%. Besides, in series [5] (4-day observation), the “body weight at 4 days” value stood at 25.82 ± 1.25 g and the “body weight at start” value came out at 25.28 ± 1.04 g. In series [5] (naïve mice, dosing for 31 days), the “effect on body weight gain” value was “did not affect body weight gain”. In addition, in series [6], the “Response to cold stimuli (2 ± 1° C. )” value turned out to be 20.6 ± 11.39 s, the “Response to heat stimuli (50 ± 1° C. )” value came out at 12.87 ± 2.59 s and the “basal response to cold or heat stimuli” value was “not effective in altering the basal response”. Also, the efflux ratio – broadly, a quotient of directional permeabilities that is used to spot active efflux – in [7] came out at 10.4. Further, in series [7] (apical-to-basolateral), the Papp A→B (in general, how fast a substance crosses the layer from the apical side) turned out to be 6.6 ×10⁻⁶ cm/s. Further, the Papp B→A (commonly how fast a substance crosses the layer from the basolateral side) in series [7] (basolateral-to-apical) was found to be 68.3 ×10⁻⁶ cm/s. Moreover, the “Cerep activity screen result” value in series [8] is given as “negative”. Also, the “14-3-3σ expression in the skin” value in [9] (hind plantar skin, study day 14, repeated dosing, vs. vehicle) is “significantly reduced”. Moreover, the “relative decrease in stratifin (14-3-3σ)” value in [9] (plasma, day 8 to day 14, daily treatment, Taxol dosed mice, vs. naïve animals) is reported as approximately 50%.
